Results on 5 molecules are retold here after paper PMC12608155, “Discovery of Potential Antileishmanial Compounds Through Phenotypic Screening of an Alkaloid Library” (Molecules, 2025).

Series [1] is described as follows: Cytotoxicity in RAW 264.7 cells (alamarBlue, 72 h). Conditions: mouse. On the procedure:
(§1) To this end, we calculated SIs from 16 preselected results from the ex vivo system. With this aim, dose–response curves were performed in duplicate across at least three independent experiments using RAW 264.7 mouse macrophages (as a model of host cells harboring amastigotes) and HepG2 (as a model for assessing systemic toxicity).
(§2) To evaluate the safety of the selected compounds, two cell lines were employed: RAW 264.7 (a mouse macrophage-derived cell line) and HepG2 (a human hepatoma cell line). Furthermore, to determine the intestinal tolerance relevant to potential oral administration, mouse intestinal organoids were prepared.
(§3) RAW 264.7 and HepG2 were routinely cultured under standard conditions. RAW 264.7 cells were maintained in RPMI medium (Gibco) supplemented with, 25 mM HEPES, 24 mM NaHCO3, 2 mM L-glutamine, mixture of antibiotics and 10% FBS. HepG2 cells were cultured in DMEM/F-12 (Gibco) and supplemented 10% of FBS. For cytotoxicity assays, 10,000 cells per well were seeded into 96-well plates and incubated overnight at 37 °C with 5% of CO2. Subsequently, 2-fold serial dilutions of the compounds were added and incubated for 72 h. Cell viability using the alamarBlue™ assay according to the manufacturer’s instructions, and fluorescence was measured with a Varioskan™ LUX microplate reader (ThermoFisher Scientific, Waltham, MA, USA). Non-linear regression analyses were performed using SigmaPlot^TM software (version 10.0) to calculate CC50. Data were obtained from at least three independent experiments performed in duplicate.

Series [2] can be described thus: Cytotoxicity in HepG2 cells (alamarBlue, 72 h). The conditions noted are these: human. On the procedure:
as §1, §2, §3

Series [3] relates to L. donovani IRFP axenic amastigotes. The series can be described thus: Dose-response assay on axenic amastigotes. It is filed as cell-based, Leishmania donovani. Conditions: Leishmania donovani. On the procedure:
The objective of the present study was to identify new antileishmanial drug candidates by screening a commercial library of plant-derived alkaloids using a platform based on axenic amastigotes of L. donovani IRFP—the causative agent of VL—genetically modified to emit infrared fluorescence during their viable stage (hereafter referred to as L. donovani IRFP). To this end, single-dose assays at 10 μM and 1 μM, as well as dose–response assays, were performed. Compounds showing significant activity in the initial screening were subsequently clustered according to chemical structure using the DataWarrior tool, and representative compounds were further evaluated in dose response assays against axenic amastigotes.
Female Balb/c mice aged from 6 to 8 weeks were intraperitoneally inoculated with 1.5 × 10^9 infective L. donovani IRFP metacyclic promastigotes. Between 8 and 12 weeks after infection, mice were humanely euthanised and bone marrow was collected from the femurs and tibias of both hind limbs. The bones were cut at both ends, and prewarmed PBS was flushed through the medullary cavity using a syringe fitted with a 27G needle, to extract the bone marrow cells. The resulting cell suspension was filtered through a 100 µm cell strainer and centrifuged at 2500 rpm for 10 min at room temperature. To obtain free amastigotes, the pelleted cells were resuspended within a 75 mL ventilated flask in amastigote culture medium (15 mM KCl; 136 mM KH2PO4; 10 mM K2HPO4.3H2O; 0.5 mM MgSO4.7 H2O; 24 mM NaHCO3; 22 mM glucose; 1 mM glutamine, 1x RPMI 1640 vitamin mix (Sigma-Aldrich, Merck, Darmstadt, Germany), 10 mM folic acid, […], 1x RPMI amino acid mix (Sigma-Aldrich, Merck, Darmstadt, Germany), […], antibiotic mixture, 25 mM MES, 10% FBS (Gibco, ThermoFisher Scientific, Waltham, MA, USA) and incubated at 37 °C in a humidified atmosphere containing 5% CO2 [46].
The efficacy of the selected compounds was assessed by measuring near-infrared fluorescence (700 nm) using an Odyssey Infrared Imaging System (Li-Cor, Lincoln, NE, USA) following the previously described protocols.

For series [4], the system named is L. donovani IRFP intramacrophagic amastigotes. The experiment in a line: Dose-response assay on ex vivo infected splenic explants (intramacrophagic amastigotes). The conditions noted are these: Leishmania donovani, Splenocyte, read-out: EC50 Intramacrophagic Amastigotes. The class given is cell-based, Leishmania donovani.
Series [5] in a line: Tolerance of mouse intestinal organoids (alamarBlue). It is filed as cell-based. Conditions: C57BL/6, mouse. The text has this:
Mouse intestinal organoids were generated following protocols standardized previously. Briefly, to obtain adult intestine stem cells, C57BL/6 mice were humanely euthanized. A section of the duodenum was excised, rinsed in ice-cold PBS, and cut into small pieces for gentle dissociation using Gentle Cell Dissociation Reagent. Tissue fragments enriched in duodenal crypts and little tissue debris were microscopically selected and resuspended in a 1:1 mixture of Geltrex™ and IntestiCult™ Mouse Medium (Gibco, ThermoFisher Scientific, Waltham, MA, USA /Stemcell Technologies^TM, Vancouver, BC, Canada). Aliquots of 50 µL of this suspension were dispensed into the center of each well of a prewarmed 24-well plate to form domes containing organoids, which were then incubated to allow matrix polymerization. Then, […] of IntestiCult™ Mouse Medium was added to each well. The plate was incubated at 37 °C in a humidified atmosphere containing 5% CO2, and the culture medium was refreshed every 48 h. During this period, organoids continued to proliferate, and passaging was performed at a 1:4 ratio every 7–10 days.
To determine the in vitro tolerance to oral administration of the active compounds, a 384-well assay was adapted from the protocol described by Du and co-workers. Briefly, following medium removal, organoids were collected from the extracellular matrix using the same procedure as for passaging. The resulting pellet was resuspended in 3.2 mL of a 1:1 mixture of Geltrex™ LDEV-Free Reduced Growth Factor Basement Membrane Matrix (without phenol red, Gibco) and IntestiCult™ Mouse Medium. Using a chilled pipette dispenser, 8 µL of the organoid suspension was dispensed into pre-cooled 384-well plates, which were then gently agitated to evenly distribute the matrix. The plates were incubated at 37 °C for 10 min and then, 32 µL of IntestiCult™ Mouse Medium was added to each well. To prevent edge effects, 100 µL of sterile water was added to the perimeter wells. After 3 days of culture, 10 µL per well of the test compounds dissolved in IntestiCult™ Mouse Medium were added. Positive (0.03% H2O2) and negative (0.2% DMSO) controls were included in each assay. After 72 h of incubation, 5 µL of alamarBlue™ HS were added to each well, and fluorescence was measured after 24 h using a Varioskan™ LUX microplate reader. All assays were conducted in triplicate and repeated in at least three independent experiments.

Series [6] deals with axenic amastigotes of L. amazonensis. Details: method as in PMID 25029171. The conditions noted are these: compared with glucantime; cited from earlier work.
In another series the test system is Leishmania amazonensis. Details: method as in PMID 25029171. Conditions: cited from earlier work.
For series [7], the system named is L. donovani IRFP axenic amastigotes. The experiment in a line: Primary single-concentration screening on axenic amastigotes, growth inhibition at 72 h. It is filed as cell-based, Leishmania donovani. Conditions: Leishmania donovani, axenic amastigotes.
The mark [8] stands for this setting: primary cultures of infected mouse splenocytes.
Where [9] appears, read: mouse intestinal organoids (from duodenal crypts), 72 h incubation, Figure S4, read-out: CC50 mouse intestinal organoids.
Setting [10] is: experiment 1, 72 h, read-out: Growth Inhibition (%) at 72h, 1 µM_Exp1.
Where [11] appears, read: experiment 2, 72 h, read-out: Growth Inhibition (%) at 72h, 1 µM_Exp2.
[12] abbreviates: experiment 1, 72 h, read-out: Growth Inhibition (%) at 72h, 10 µM_Exp1.
The mark [13] stands for this setting: experiment 2, 72 h, read-out: Growth Inhibition (%) at 72h, 10 µM_Exp2.

Structures are written as SMILES. Read-outs that look alike come from different tables or passages of the source.

In the case of `COc1ccc2cc3[n+](cc2c1OC)CCc1cc2c(cc1-3)OCO2` [Berberine], the CC50 at 72 h in series [1] (RAW 264.7 macrophage cells) is > 20000 nM; in series [2] (HepG2 hepatoma cells), > 20000 nM; in series [5] (setting [9]) it was > 25000 nM. For the same molecule, 570 ± 80 nM corresponded to half-maximal inhibition in series [3] (IC50). In addition, the EC50 in series [4] (setting [8]) turned out to be 1760 ± 60 nM.

For the molecule `COc1ccc2c(c[n+](C)c3c4cc5c(cc4ccc23)OCO5)c1OC` [Chelerythrine], the CC50 at 72 h in series [1] stood at 5510 ± 160 nM; in series [2] it was 5500 ± 640 nM. In addition, the IC50 in series [3] came to 80 ± 10 nM. Moreover, the “in vitro IC50 values against axenic amastigotes of L. amazonensis” value in series [6] is “very similar to those of glucantime”. Also, the “antileishmanial effect in vivo” value in the series with Leishmania amazonensis is listed as “moderate”. In addition, the 50% effective concentration (EC50) in series [4] (setting [8]) came to 1610 ± 50 nM. For the same molecule, the inhibition at 1 µM came out at 97.2% in series [7] (setting [10]) and 95.7% in series [7] (setting [11]). Further, the inhibition at 10 µM in series [7] (setting [12]) came to 100%; in series [7] (setting [13]), 101%.

With `c1c2c(cc3c1OCO3)-c1cc3ccc4c(c3c[n+]1CC2)OCO4` [Coptisine], the CC50 at 72 h is > 10000 nM in series [1], > 10000 nM in series [2] and > 25000 nM in series [5]. The molecule further returned an IC50 in series [3] of 2850 ± 250 nM. For the same molecule, in series [4] (in Mus musculus), the EC50 is 3390 ± 230 nM.

For `COc1cc2c(cc1OC)-c1c(C)c3ccc(OC)c(OC)c3c[n+]1CC2` [Dehydrocorydaline], the CC50 at 72 h is > 10000 nM in series [1] (RAW 264.7 macrophage cells), > 10000 nM in series [2] (HepG2 hepatoma cells) and > 50000 nM in series [5] (setting [9]). Besides, the IC50 in series [3] is 2810 ± 490 nM. The EC50 in series [4] (setting [8]) turned out to be 2680 ± 110 nM. Besides, the inhibition at 1 µM is 19.1% in series [7] (setting [10]) and -42.6% in series [7] (setting [11]). The inhibition at 10 µM in series [7] (setting [12]) was found to be 81.7%; in series [7] (setting [13]), 88.3%.

For `COc1cc2c[n+](C)c3c4cc5c(cc4ccc3c2cc1OC)OCO5` [Nitidine], the CC50 at 72 h in series [1] (RAW 264.7 macrophage cells) was determined as 2010 ± 160 nM; in series [2] (HepG2 hepatoma cells), 490 ± 20 nM. For the same molecule, the IC50 in series [3] came out at 270 ± 10 nM. In addition, the “in vitro IC50 values against axenic amastigotes of L. amazonensis” value in series [6] is recorded as “very similar to those of glucantime”. Moreover, the “antileishmanial effect in vivo” value in the series with Leishmania amazonensis was “moderate”. For the same molecule, in series [4] (setting [8]), the EC50 was 650 ± 30 nM. Also, the figures for the inhibition at 1 µM in series [7] (setting [10]) and in series [7] (setting [11]) were 45% and 69.6%, respectively. Further, the inhibition at 10 µM in series [7] (setting [12]) was found to be 100%; in series [7] (setting [13]), 99.7%.
